Results taken from US10793864B2, “Methods and compositions for assessing viral nuclear localization” (GEORGE MASON UNIVERSITY, priority 2015, dated 2020).
Entries after “also recorded” stand apart in the source; their conditions may differ.

Tests used:
Type in all cases: cell-based
HIV-1NL4-3 = assay: HIV-1 replication measured by p24 release in CEM-SS T cells; conditions: CEM-SS T cells pre-treated 1 hour, infected with HIV-1NL4-3
Description: (§1) Briefly, CEM-SS T cells were pre-treated with DMSO or CK548 for 1 hour, and then infected with HIV-1NL4-3. Viral replication was measured by p24 release (see FIG. 5A). Drug cytotoxicity was meaured in CK548-treated and infected cells by PI staining and flow cytometry (see FIG. 5B). Shown is the percentage of PI-positive cells. […] Cells were infected for 2 hours, washed, and cultured in the presence of the drug for 48 hours. Total cellular DNA was extracted at 48 hours post infection and then PCR-amplified to quantify viral DNA (for results see FIG. 5C). Viral 2-LTR-circles were also measured (see FIG. 5D). The relative ratio of 2-LTR circles to viral total DNA was also plotted.

CEM-SS T cells = assay: Drug cytotoxicity by PI staining and flow cytometry; conditions: CK548-treated and infected CEM-SS T cells; at 50 μM and below
Description: as §1

[1] = system: single-cycle HIV-1(Env) pseudotyped with HIV-1 gp160; assay: Viral nuclear migration, 2-LTR circles measured after single-cycle HIV-1 infection; conditions: CEM-SS T cells, 48 hours post infection
Description: as §1
(§2) The nuclear migration assay was performed in two CEM-SS-based cells, shArp-12 and shArp-13, which we recently constructed. In both shArp-12 and shArp-13, the actin branching factor Arp3 was stably knockdown (80% knockdown). […] We will re-measure the nuclear entry defect by BLNMA. […] We will also perform BLNMA to confirm the phenotype.

[2] = system: single-cycle HIV-1(Env) pseudotyped with HIV-1 gp160; assay: PCR quantification of viral DNA after single-cycle HIV-1 infection; conditions: CEM-SS T cells, 48 hours post infection
Description: as §1, §2

With `O=C1CSC(c2cccc(Br)c2)N1c1cc(Cl)ccc1O` (stereo not shown) [CK548] the “HIV-1 infection (viral replication by p24 release)” value (HIV-1NL4-3) was “inhibits HIV-1 infection”, the “Drug cytotoxicity (percentage of PI-positive cells)” value (CEM-SS T cells) was “No drug cytotoxicity was detectable” and the “HIV nuclear migration (2-LTR circles)” value [1] was “inhibits HIV-1 infection and viral nuclear migration; also recorded: dramatically inhibited HIV nuclear migration”. For the same compound, the “HIV DNA synthesis (viral total DNA by PCR)” value [2] was “stimulating HIV DNA synthesis”.
